Assay results published in patent publication US8067435B2, “Nitrogen-containing heterocyclic compounds, their preparation and their use as antibacterial drugs” (AstraZeneca AB, priority 2008, dated 2011).
≈ marks a conversion by molar mass, not a printed value.

System: Pseudomonas aeruginosa (1771 Strain of the wild type)
Assay: Activity in vitro, method of dilutions in a liquid medium (MIC)
Assay type: cell-based
Conditions: Pseudomonas aeruginosa 1771 wild type; liquid medium dilution; 24 hrs incubation at 37° C.
Protocol: Activity in vitro, method of dilutions in a liquid medium: A series of tubes is prepared in which the same amount of sterile nutritive medium is distributed, increasing amounts of the product to be studied are distributed in each tube, and each tube is then sown with a bacterial strain. After incubation for 24 hrs in the oven at 37° C., inhibition of growth is appreciated by trans-illumination, which allows determination of the minimum inhibitory concentrations (MICs) expressed in μg/ml.
Thus tests are carried out with the products of Examples 1 to 8 in comparison with products of Examples 7, 9, 11 and 45 of application WO 04/052891. […] The activity difference on Pseudomonas aeruginosa between the products of the invention and the closest products from the prior art is located according to the products in a range from 16 to more than 500.
Activity on Pseudomonas aeruginosa (1771 Strain of the wild type)

Point of comparison: `CN(C)C(=O)n1cc2c(n1)[C@@H](CN)N1C[C@H]2N(OS(=O)(=O)O)C1=O.O=C([O-])C(F)(F)F.[Na+]` (relative stereo) [Ex 2, Sodium trifluoroacetate salt of trans 8-(aminomethyl)-2-dimethylcarbamoyle-4,8-dihydro-5-(sulfooxy)-4,7-methano-7H-pyrazolo[3,4-e][1,3]diazepin-6(5H)-one], “MIC (μg/mL) 24 h (P, aerug, 1771)” value 2 µg/mL. Against it:
- CNC(=O)n1cc2c(n1)[C@@H](CN)N1C[C@H]2N(OS(=O)(=O)O)C1=O.O=C([O-])C(F)(F)F.[Na+] (relative stereo) [Ex 3, Sodium trifluoroacetate salt of trans 8-(aminomethyl)-2-methylcarbamoyl-4,8-dihydro-5-(sulfooxy)-4,7-methano-7H-pyrazolo[3,4-e][1,3]diazepin-6(5H)-one] — the same, 2 µg/mL
- NC[C@@H]1c2nn(-c3ccccn3)cc2[C@H]2CN1C(=O)N2OS(=O)(=O)O.O=C([O-])C(F)(F)F.[Na+] (relative stereo) [Ex 6, Sodium trifluoroacetate salt of trans 8-(aminomethyl)-2-(2-pyridinyl)-4,8-dihydro-5-(sulfooxy)-4,7-methano-7H-pyrazolo[3,4-e][1,3]diazepin-6(5H)-one] — 4-fold higher, 8 µg/mL
- NC[C@@H]1c2nn(C(N)=O)cc2[C@H]2CN1C(=O)N2OS(=O)(=O)O.O=C([O-])C(F)(F)F.[Na+] (relative stereo) [Ex 1, Sodium trifluoroacetate salt of trans 8-(aminomethyl)-2-carbamoyle-4,8-dihydro-5-(sulfooxy)-4,7-methano-7H-pyrazolo[3,4-e][1,3]diazepin-6(5H)-one] — 8-fold lower, 0.25 µg/mL
- NC[C@@H]1c2nn(CC(=O)O)cc2[C@H]2CN1C(=O)N2OS(=O)(=O)O.O=C([O-])C(F)(F)F.[Na+] (relative stereo) [Ex 7, Sodium trifluoroacetate salt of trans-8-(aminomethyl)-5,6-dihydro-6-oxo-5-(sulfooxy)-4H-4,7-methanopyrazolo[3,4-e][1,3]diazepin-2(8H)-acetic acid] — 2-fold higher, 4 µg/mL
- NCCn1cc2c(n1)[C@@H](CN)N1C[C@H]2N(OS(=O)(=O)O)C1=O.O=C([O-])C(F)(F)F.[Na+] (relative stereo) [Ex 5, Sodium trifluoroacetate salt of trans 8-(aminomethyl)-2-(2-amino-ethyl)-4,8-dihydro-5-(sulfooxy)-4,7-methano-7H-pyrazolo[3,4-e][1,3]diazepin-6(5H)-one] — 8-fold lower, 0.25 µg/mL
- NCCn1ncc2c1[C@@H](CN)N1C[C@H]2N(OS(=O)(=O)O)C1=O.O=C([O-])C(F)(F)F.[Na+] (relative stereo) [Ex 4, Sodium trifluoroacetate salt of trans 8-(aminomethyl)-1-(2-amino-ethyl)-4,8-dihydro-5-(sulfooxy)-4,7-methano-7H-pyrazolo[3,4-e][1,3]diazepin-6(5H)-one] — 8-fold lower, 0.25 µg/mL
- NC[C@@H]1c2nn(CC(N)=O)cc2[C@H]2CN1C(=O)N2OS(=O)(=O)O.O=C([O-])C(F)(F)F.[Na+] (relative stereo) [Ex 8, Sodium trifluoroacetate salt of trans-8-(aminomethyl)-5,6-dihydro-6-oxo-5-(sulfooxy)-4H-4,7-methanopyrazolo[3,4-e][1,3]diazepin-2(8H)-acetamide] — 4-fold lower, 0.5 µg/mL

Same assay, conditions: Pseudomonas aeruginosa 1771 wild type; liquid medium dilution; 24 hrs incubation at 37° C.; read-out: MIC (μg/mL) 24 h (P, aerug, 1771)

Point of comparison: `C[C@@H](O)[C@H]1C(=O)N2C(C(=O)O)=C(SCCN=CN)C[C@H]12` [IMP, Imipenem, reference compound], MIC 1 µg/mL (≈ 3.34 µM). Against it:
- CC(C)(O/N=C(\C(=O)N[C@@H]1C(=O)N2C(C(=O)[O-])=C(C[n+]3ccccc3)CS[C@H]12)c1csc(N)n1)C(=O)O [CAZ, Ceftazidime, reference compound] — the same, 1 µg/mL (≈ 1.83 µM)
